In patent publication US20190023658A1, “SUBSTITUTED 2-DIFLUOROMETHYL-NICOTIN(THIO)CARBOXANILIDE DERIVATIVES AND THEIR USE AS FUNGICIDES” (Bayer CropScience Aktiengesellschaft, priority 2015, published 2019):

Key:
[1] = Log P by HPLC on reversed phase columns (EEC directive 79/831 Annex V.A8); format: physicochemical; conditions: [a] LC-UV, acidic range, 0.1% formic acid in water and acetonitrile as eluent
Method: Measurement of Log P values was performed according to EEC directive 79/831 Annex V.A8 by HPLC (High Performance Liquid Chromatography) on reversed phase columns with the following methods: [a] Log P value is determined by measurement of LC-UV, in an acidic range, with 0.1% formic acid in water and acetonitrile as eluent (linear gradient from 10% acetonitrile to 95% acetonitrile). [b] Log P value is determined by measurement of LC-UV, in a neutral range, with 0.001 molar ammonium acetate solution in water and acetonitrile as eluent (linear gradient from 10% acetonitrile to 95% acetonitrile). Calibration was done with straight-chain alkan2-ones (with 3 to 16 carbon atoms) with known Log P values (measurement of Log P values using retention times with linear interpolation between successive alkanones). Lambda-max-values were determined using UV-spectra from 200 nm to 400 nm and the peak values of the chromatographic signals.

[2] = system: Puccinia recondita; test: In vivo preventive test on Puccinia recondita (brown rust on wheat); conditions: 10 ppm of active ingredient; wheat plants, preventive spray, evaluated 11 days after inoculation
Method: (§1) Example: In Vivo Preventive Test on Puccinia recondita (Brown Rust on Wheat) [table] The active ingredients are made soluble and homogenized in a mixture of Dimethyl sulfoxide/Acetone/Tween® 80 and then diluted in water to the desired concentration. The young plants of wheat are treated by spraying the active ingredient prepared as described above. Control plants are treated only with an aqueous solution of Acetone/Dimethyl sulfoxide/Tween® 80. After 24 hours, the plants are contaminated by spraying the leaves with an aqueous suspension of Puccinia recondita spores. The contaminated wheat plants are incubated for 24 hours at 20° C. and at 100% relative humidity and then for 10 days at 20° C. and at 70-80% relative humidity. The test is evaluated 11 days after the inoculation. 0% means an efficacy which corresponds to that of the control plants while an efficacy of 100% means that no disease is observed.

[3] = system: Uromyces appendiculatus; test: In vivo preventive test on Uromyces appendiculatus (bean rust); conditions: 500 ppm of active ingredient; bean plants, preventive spray, evaluated 11 days after inoculation
Method: as §1, with “Uromyces appendiculatus (Bean Rust)” for “Puccinia recondita (Brown Rust on Wheat)”, “bean” for “wheat”, “Uromyces appendiculatus” for “Puccinia recondita”

LogP [1]	SMILES	efficacy [2]	efficacy [3]
3.29^[a]	O=C(Nc1ccccc1Oc1cccc(Cl)c1)c1cccnc1C(F)F [Example I-06]	at least 70%	
3.96^[a]	O=C(Nc1ccc(F)cc1-c1ccc(Cl)c(Cl)c1)c1c(C(F)F)ccnc1C(F)F [Example I-31]		at least 70%
